Source: patent US9694016B2 (Novartis AG, priority 2013, dated 2017)

Molecular target: b-Raf (V600E) (Homo sapiens (Human), UniProt P15056, V600E)
Conditions: read-out: b-Raf IC-50

b-Raf (V600E), sequence (P15056 whole entry V600E): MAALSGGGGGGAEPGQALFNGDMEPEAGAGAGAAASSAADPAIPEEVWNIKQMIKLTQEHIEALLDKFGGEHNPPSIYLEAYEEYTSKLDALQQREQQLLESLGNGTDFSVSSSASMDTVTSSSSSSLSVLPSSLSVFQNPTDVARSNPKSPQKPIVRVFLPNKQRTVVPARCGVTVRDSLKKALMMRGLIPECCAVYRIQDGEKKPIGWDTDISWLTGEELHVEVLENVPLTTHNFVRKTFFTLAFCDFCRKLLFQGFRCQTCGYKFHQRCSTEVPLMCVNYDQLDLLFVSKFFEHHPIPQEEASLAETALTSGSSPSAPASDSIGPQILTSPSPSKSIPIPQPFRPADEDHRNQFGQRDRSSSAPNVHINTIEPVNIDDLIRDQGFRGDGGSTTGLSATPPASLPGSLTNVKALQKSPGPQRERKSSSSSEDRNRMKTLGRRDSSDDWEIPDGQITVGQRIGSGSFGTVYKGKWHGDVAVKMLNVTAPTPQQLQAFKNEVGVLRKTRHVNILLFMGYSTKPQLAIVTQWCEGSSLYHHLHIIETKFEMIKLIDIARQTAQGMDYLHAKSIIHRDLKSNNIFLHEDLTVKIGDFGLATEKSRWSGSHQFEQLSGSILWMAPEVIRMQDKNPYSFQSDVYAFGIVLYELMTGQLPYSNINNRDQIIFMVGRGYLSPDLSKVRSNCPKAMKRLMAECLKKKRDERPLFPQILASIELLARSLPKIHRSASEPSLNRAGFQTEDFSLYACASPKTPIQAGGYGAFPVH

SMILES	IC50 [nM]
COc1cc(-c2cc(NC(=O)c3cccc(C(F)(F)F)c3)ccc2C)nc(N2CCOCC2)c1 [Example 196, N-(3-(4-methoxy-6-morpholinopyridin-2-yl)-4-methylphenyl)-3-(trifluoromethyl)benzamide]	1.5

Same assay, conditions: read-out: b-Raf IC-50; Table 2; AlphaScreen, 3 hours reaction

SMILES	IC50 [nM]
Cc1ccc(NC(=O)c2ccnc(S(C)(=O)=O)c2)cc1-c1cc(N2CCOCC2)c(=O)n(C)c1 [Example 184, N-(4-methyl-3-(1-methyl-5-morpholino-6-oxo-1,6-dihydropyridin-3-yl)phenyl)-2-(methylsulfonyl)isonicotinamide]	3.1
Cc1ccc(NC(=O)c2cccc(C(F)F)c2)cc1-c1cc(N2CCOCC2)c(=O)n(C)n1 [Example 190, 3-(difluoromethyl)-N-(4-methyl-3-(1-methyl-5-morpholino-6-oxo-1,6-dihydropyridazin-3-yl)phenyl)benzamide]	2.2
Cc1ccc(NC(=O)c2ccnc(C(C)(C)C#N)c2)cc1-c1cc(N2CCOCC2)c(=O)n(C)n1 [Example 191, 2-(2-cyanopropan-2-yl)-N-(4-methyl-3-(1-methyl-5-morpholino-6-oxo-1,6-dihydropyridazin-3-yl)phenyl)isonicotinamide]	5.4
COC(=O)NCCn1cc(-c2cc(NC(=O)c3cccc(C(F)(F)F)c3)cnc2C)cc(N2CCOCC2)c1=O [Example 193, methyl(2-(2′-methyl-5-morpholino-6-oxo-5′-(3-(trifluoromethyl)benzamido)-[3,3′-bipyridin]-1(6H)-yl)ethyl)carbamate]	100
Cc1ccc(NC(=O)c2cccc(C(F)(F)F)c2)cc1-c1cnc(N2CCOCC2)s1 [Example 198, N-(4-methyl-3-(2-morpholinothiazol-5-yl)phenyl)-3-(trifluoromethyl)benzamide]	0.8
Cc1ncc(NC(=O)c2cccc(C(F)(F)F)c2)cc1-c1cnc(C#N)c(N2CCOCC2)c1 [Example 222, N-(6′-cyano-2-methyl-5′-morpholino-[3,3′-bipyridin]-5-yl)-3-(trifluoromethyl)benzamide]	3.8
Cc1ccc(NC(=O)c2ccnc(C(C)(C)C#N)c2)cc1-c1cnc(OC(F)F)c(N2CCOCC2)c1 [Example 223, 2-(2-cyanopropan-2-yl)-N-(3-(6-(difluoromethoxy)-5-morpholinopyridin-3-yl)-4-methylphenyl)isonicotinamide]	2.2
Cc1ncc(NC(=O)c2cccc(C(F)(F)F)c2)cc1-c1cnc(OC(F)F)c(N2CCOCC2)c1 [Example 224, N-(6′-(difluoromethoxy)-2-methyl-5′-morpholino-[3,3′-bipyridin]-5-yl)-3-(trifluoromethyl)benzamide]	2.7
Cc1ccc(NC(=O)c2ccnc(C(C)(C)O)c2)cc1-c1cnc(OC(F)F)c(N2CCOCC2)c1 [Example 226, N-(3-(6-(difluoromethoxy)-5-morpholinopyridin-3-yl)-4-methylphenyl)-2-(2-hydroxypropan-2-yl)isonicotinamide]	1.9
Cc1ncc(NC(=O)c2cccc(C(F)(F)F)c2)cc1-c1cnc(OCC(F)F)c(N2CCOCC2)c1 [Example 227, N-(6′-(2,2-difluoroethoxy)-2-methyl-5′-morpholino-[3,3′-bipyridin]-5-yl)-3-(trifluoromethyl)benzamide]	1.8
Cc1ncc(NC(=O)c2ccnc(C(C)(C)C#N)c2)cc1-c1cnc(OCC(F)F)c(N2CCOCC2)c1 [Example 228, 2-(2-cyanopropan-2-yl)-N-(6′-(2,2-difluoroethoxy)-2-methyl-5′-morpholino-[3,3′-bipyridin]-5-yl)isonicotinamide]	4.7
CCOc1ncc(-c2cc(NC(=O)c3cccc(S(C)(=O)=O)c3)ccc2C)cc1N1CCOCC1 [Example 229, N-(3-(6-ethoxy-5-morpholinopyridin-3-yl)-4-methylphenyl)-3-(methylsulfonyl)benzamide]	0.7
CCOc1ncc(-c2cc(NC(=O)c3cccc(-c4nnco4)c3)ccc2C)cc1N1CCOCC1 [Example 230, N-(3-(6-ethoxy-5-morpholinopyridin-3-yl)-4-methylphenyl)-3-(1,3,4-oxadiazol-2-yl)benzamide]	1.4
CCOc1ncc(-c2cc(NC(=O)c3cccc(C(F)F)c3)ccc2C)cc1N1CCOCC1 [Example 231, 3-(difluoromethyl)-N-(3-(6-ethoxy-5-morpholinopyridin-3-yl)-4-methylphenyl)benzamide]	0.4
CCOc1ncc(-c2cc(NC(=O)c3cccc(C(F)(F)F)c3)ccc2C)cc1N1CCOCC1 [Example 235]	1

Further lines, results first:

IC50 [nM]	SMILES
0.8	CCOc1ncc(-c2cc(NC(=O)c3ccnc(S(C)(=O)=O)c3)ccc2C)cc1N1CCOCC1 [Example 232, N-(3-(6-ethoxy-5-morpholinopyridin-3-yl)-4-methylphenyl)-2-(methylsulfonyl)isonicotinamide]
0.6	CCOc1ncc(-c2cc(NC(=O)c3ccnc(C(C)(F)F)c3)ccc2C)cc1N1CCOCC1 [Example 233, 2-(1,1-difluoroethyl)-N-(3-(6-ethoxy-5-morpholinopyridin-3-yl)-4-methylphenyl)isonicotinamide]
1	CCOc1ncc(-c2cc(NC(=O)c3cc(C(F)(F)F)c(=O)n(CC)c3)ccc2C)cc1N1CCOCC1 [Example 234, N-(3-(6-ethoxy-5-morpholinopyridin-3-yl)-4-methylphenyl)-1-ethyl-6-oxo-5-(trifluoromethyl)-1,6-dihydropyridine-3-carboxamide]
0.4	CCOc1ncc(-c2cc(NC(=O)c3ccnc(C(F)F)c3)ccc2C)cc1N1CCOCC1 [Example 237, 2-(difluoromethyl)-N-(3-(6-ethoxy-5-morpholinopyridin-3-yl)-4-methylphenyl)isonicotinamide]
0.9	CCOc1ncc(-c2cc(C(=O)Nc3cccc(S(C)(=O)=O)c3)ccc2C)cc1N1CCOCC1 [Example 238, 3-(6-ethoxy-5-morpholinopyridin-3-yl)-4-methyl-N-(3-(methylsulfonyl)phenyl)benzamide]
5.6	CCOc1ncc(-c2cc(NC(=O)c3ccnc(C(C)(C)C#N)c3)cnc2C)cc1N1CCOCC1 [Example 239, 2-(2-cyanopropan-2-yl)-N-(6′-ethoxy-2-methyl-5′-morpholino-[3,3′-bipyridin]-5-yl)isonicotinamide]
15.3	CCOc1ncc(-c2cc(NC(=O)c3ccnc(C(C)(C)O)c3)cnc2C)cc1N1CCOCC1 [Example 240, N-(6′-ethoxy-2-methyl-5′-morpholino-[3,3′-bipyridin]-5-yl)-2-(2-hydroxypropan-2-yl)isonicotinamide]
5.7	CCOc1ncc(-c2cc(NC(=O)c3cc(C(F)(F)F)c(=O)n(CC)c3)cnc2C)cc1N1CCOCC1 [Example 241, N-(6′-ethoxy-2-methyl-5′-morpholino-[3,3′-bipyridin]-5-yl)-1-ethyl-6-oxo-5-(trifluoromethyl)-1,6-dihydropyridine-3-carboxamide]
3.9	CCOc1ncc(-c2cc(NC(=O)c3cccc(S(C)(=O)=O)c3)cnc2C)cc1N1CCOCC1 [Example 242, N-(6′-ethoxy-2-methyl-5′-morpholino-[3,3′-bipyridin]-5-yl)-3-(methylsulfonyl)benzamide]
5.3	CCOc1ncc(-c2cc(NC(=O)c3ccnc(S(C)(=O)=O)c3)cnc2C)cc1N1CCOCC1 [Example 243, N-(6′-ethoxy-2-methyl-5′-morpholino-[3,3′-bipyridin]-5-yl)-2-(methylsulfonyl)isonicotinamide]
7.6	CCOc1ncc(-c2cc(NC(=O)c3cccc(-c4nnco4)c3)cnc2C)cc1N1CCOCC1 [Example 244, N-(6′-ethoxy-2-methyl-5′-morpholino-[3,3′-bipyridin]-5-yl)-3-(1,3,4-oxadiazol-2-yl)benzamide]
1.3	CCOc1ncc(-c2cc(NC(=O)c3cc(C4CC4)on3)cnc2C)cc1N1CCOCC1 [Example 245, 5-cyclopropyl-N-(6′-ethoxy-2-methyl-5′-morpholino-[3,3′-bipyridin]-5-yl)isoxazole-3-carboxamide]
1.2	CCOc1ncc(-c2cc(NC(=O)c3ccnc(C(F)(F)F)c3)cnc2C)cc1N1CCOCC1 [Example 246, N-(6′-ethoxy-2-methyl-5′-morpholino-[3,3′-bipyridin]-5-yl)-2-(trifluoromethyl)isonicotinamide]
1.1	CCOc1ncc(-c2cc(NC(=O)c3ccnc(C(F)F)c3)cnc2C)cc1N1CCOCC1 [Example 247, 2-(difluoromethyl)-N-(6′-ethoxy-2-methyl-5′-morpholino-[3,3′-bipyridin]-5-yl)isonicotinamide]
1.2	CCOc1ncc(-c2cc(NC(=O)c3cccc(C(F)(F)F)c3)cnc2C)cc1N1CCOCC1 [Example 248, N-(6′-ethoxy-2-methyl-5′-morpholino-[3,3′-bipyridin]-5-yl)-3-(trifluoromethyl)benzamide]
36.5	Cc1ncc(NC(=O)c2cc(CN(C)C)cc(C(F)(F)F)c2)cc1-c1cnc(C#N)c(N2CCOCC2)c1 [Example 249, N-(6′-cyano-2-methyl-5′-morpholino-[3,3′-bipyridin]-5-yl)-3-((dimethylamino)methyl)-5-(trifluoromethyl)benzamide]
3.1	Cc1ncc(NC(=O)c2ccnc(C(C)C)c2)cc1-c1cnc(C#N)c(N2CCOCC2)c1 [Example 251, N-(6′-cyano-2-methyl-5′-morpholino-[3,3′-bipyridin]-5-yl)-2-isopropylisonicotinamide]
3.1	CCOc1ncc(-c2cc(NC(=O)c3ccnc(C(C)C)c3)cnc2C)cc1N1CCOCC1 [Example 252, N-(6′-ethoxy-2-methyl-5′-morpholino-[3,3′-bipyridin]-5-yl)-2-isopropylisonicotinamide]
2.6	CCOc1ncc(-c2cc(NC(=O)c3ccnc(C(C)(C)F)c3)cnc2C)cc1N1CCOCC1 [Example 253, N-(6′-ethoxy-2-methyl-5′-morpholino-[3,3′-bipyridin]-5-yl)-2-(2-fluoropropan-2-yl)isonicotinamide]
1.8	CCOc1ncc(-c2cc(NC(=O)c3ccnc(C4CC4)c3)cnc2C)cc1N1CCOCC1 [Example 254, 2-cyclopropyl-N-(6′-ethoxy-2-methyl-5′-morpholino-[3,3′-bipyridin]-5-yl)isonicotinamide]
